From patent US20060094763A1, “Polymorphic forms of 6-[2-(methylcarbomoyl) phenyl sulfanyl]-3-E-[2-(pyridin-2-yl)ethenyl]indazole” (Agouron Pharmaceuticals, Inc., priority 2004, published 2006)
In brackets after ≈: the same amount, converted by molar mass. Blank lines part the entries; values can stand above or below the compound they belong to.

Assays:
[1] = Aqueous solubility of polymorphic forms of Compound 1; format: physicochemical; conditions: for solubility: aqueous medium
[2] = Physical and chemical storage stability of polymorphic forms (heat, humidity); conditions: for Time stable: 40° C. under 75% relative humidity
[3] = Salt screening: solubility of in situ acid salts of Compound 1 in 100 mM acid solutions (HPLC); conditions: 100 mM acid solution, excess solid
Protocol: To ensure that the maximum solubility level was reached, the samples were checked periodically to ensure that excess solid was present. After 8 days 400 μL of the mixture was removed and centrifuged at 14,000 rpm for 5 minutes. 100 μL of the supernatant was then removed, diluted with 900 μL of a 1:1 mixture of acetonitrile/methanol, and then analyzed by HPLC.

[4] = Human metabolites of Compound 1; conditions: in vivo
Source text: The chemical structures of three oxygenated metabolites, M12 (the sulfoxide of Compound 1), M15 (the sulfone of Compound 1) and M9 (a mixed sulfoxidized/N-oxidized product of Compound 1), were confirmed based on the comparison in chromatographic retention times and mass spectra of the in-vivo metabolites to their authentic reference standards. The chemical structure of the glucuronide (M7) of Compound 1 was confirmed by the isolation of the metabolite followed by NMR determination. […] The proposed structures (or elemental compositions) of M5 and its major fragment ions (m/z 342, 311, 265, and 237) were all highly consistent with the elemental compositions determined by accurate mass measurement (with mass measurement accuracy ≦1.2 ppm for all). The definitive structures of metabolites M8a, M12a and M14 are currently unknown.

solubility ([1]; pH 2, simulated gastric fluid, pH 2): 179 µg/mL (≈ 463 µM)
Aqueous solubility ([1]; pH 6.5): 9 µg/mL
Time stable [2]: at least 13 days
Chemical stability ([2]; 80° C.): chemically stable
Compound: CNC(=O)c1ccccc1Sc1ccc2c(/C=C/c3ccccn3)n[nH]c2c1 [Form I, 6-[2-(methylcarbamoyl)phenylsulfanyl]-3-E-[2-(pyridin-2-yl)ethenyl]indazole]

Compound: Benzene sulfonic acid
Solubility 8 days ([3]; stirred 8 days in the dark): 10 µg/mL
Solubility 14 days ([3]; stirred 14 days in the dark): 11 µg/mL

Metabolism in humans [4]: extensive metabolism
Compound: CNC(=O)c1ccccc1Sc1ccc2c(/C=C/c3ccccn3)n[nH]c2c1 [Compound 1, 6-[2-(methylcarbamoyl)phenylsulfanyl]-3-E-[2-(pyridin-2-yl)ethenyl]indazole]

solubility ([1]; pH 1, simulated gastric fluid, pH 1): ~550 µg/mL (≈ 1420 µM)
solubility ([1]; pH 4, aqueous buffer, pH 4): ~6 µg/mL (≈ 15.5 µM)
solubility ([1]; pH 8, aqueous buffer, pH 8): ~2 µg/mL (≈ 5.17 µM)
Aqueous solubility ([1]; pH 2): about 157 μg/mL
Aqueous solubility ([1]; pH 6.5): about 2 μg/mL
Time stable [2]: at least 30 days
Time physically and chemically stable ([2]; 80° C.): at least 30 days
Compound: CNC(=O)c1ccccc1Sc1ccc2c(/C=C/c3ccccn3)n[nH]c2c1 [Form IV, 6-[2-(methylcarbamoyl)phenylsulfanyl]-3-E-[2-(pyridin-2-yl)ethenyl]indazole]
